Source: PMC6680314, “Characterization of the recombinant Brettanomyces anomalus β‐glucosidase and its potential for bioflavouring” (Journal of Applied Microbiology, 2016)

Tests used:
[1] = system: T1, B. anomalus β-glucosidase (YV396 β-glucosidase); assay: glucose release, GOD-PAP assay at […] nm, Michaelis-Menten fit; format: biochemical, Brettanomyces anomalus; details: McIlvaine buffer pH 5.75, 37 °C (optimum of this enzyme); free enzyme; read-out: pH 5.75 37°C / K M
T1 construct: gene GH3 beta-glucosidase; full gene (2523 bp incl. stop, about 840 residues), codon optimised, pET28-YV396-His6, tag kept, E. coli BL21(DE3), Ni-Sepharose and Superdex 200

almond β-glucosidase = system: T2, almond β-glucosidase; assay: as above; format: biochemical, Prunus dulcis; details: McIlvaine buffer pH 5.75, 37 °C; commercial preparation; read-out: pH 5.75 37°C / K M
T2 construct: gene GH1 beta-glucosidase

For `N#C[C@H](O[C@@H]1O[C@H](CO[C@@H]2O[C@H](CO)[C@@H](O)[C@H](O)[C@H]2O)[C@@H](O)[C@H](O)[C@H]1O)c1ccccc1` [amygdalin], the Km [1] was 1 ± 0.05 mM and the Km (almond β-glucosidase) was 10.1 ± 0.13 mM.
`OC[C@H]1O[C@@H](O[C@H]2[C@H](O)[C@@H](O)C(O)O[C@@H]2CO)[C@H](O)[C@@H](O)[C@@H]1O` (stereo partly drawn) [cellobiose] showed a Km [1] of 15.1 ± 0.73 mM and a Km (almond β-glucosidase) of 0.34 ± 0.08 mM.
Compound `OCc1ccccc1O[C@@H]1O[C@H](CO)[C@@H](O)[C@H](O)[C@H]1O` [salicin] has a Km [1] of 1.01 ± 0.18 mM and a Km (almond β-glucosidase) of 19.6 ± 2.06 mM.
